The values below come from paper PMC6271245, “Discovery of Gramine Derivatives That Inhibit the Early Stage of EV71 Replication in Vitro” (Molecules, 2014).

In data set [1] the test system is Enterovirus 71 (EV71). Put plainly: Inhibition of EV71-induced cytopathogenicity (CPE) in RD cells, MTT. The data set is classed as cell-based. The following applies: for EC50: Enterovirus A, read-out: EC50 (µg/mL) RD; for inhibition of virus-induced CPE (morphology): 10 µg/mL 4a, 20 µg/mL 4i, 40 µg/mL 4r or 4s, 48 h pi. The procedure:
(§1) The antiviral activities of gramine and its derivatives against EV71 based on inhibition of virus-induced cytopathogenicity effects (CPEs) in African green monkey kidney cells (Vero) and rhabdomyosarcoma cells (RD) were examined. The cytotoxic effects were also evaluated. The inhibitory activities expressed as half maximal effective concentration (EC50) values and selectivity indexes (SI) for the target compounds are presented in Table 1, and the dose-dependent antiviral effects are shown in Figure 1A.
(§2) The activity of compounds against EV71 was determined based on the inhibition of virus-induced cytopathogenicity effects (CPEs) in acutely infected cells. Vero and RD cells grown to 90% confluency in 96-well dishes were washed with phosphate buffered saline (PBS) and infected with 100 TCID50 of EV71 mixed with serial dilutions of tested compounds for 1.5 h at 37 °C. The inoculum was aspirated and cells were incubated with DMEM and test compounds at 37 °C, 5% CO2 for 48 h. The CPEs were observed microscopically and the viability of the cells was determined with a 3-(4,5-dimethylthiazol-2-yl)-2,5-diphenyltetrazolium bromide (MTT) assay. The concentrations required for the test compounds to achieve 50% protection from virus-induced cytopathogenicity (EC50) were determined. Adverse effects of these compounds on the host cells were also assessed by means of the MTT-method; by exposing uninfected cells to various concentrations of test compounds for 48 h at 37 °C, the viability of the cells was detected. The 50% cell cytotoxic concentrations (CC50) of compounds were calculated with the SPSS software (SPSS, Chicago, IL, USA). Selectivity indexes were calculated as the ratio of CC50: EC50.
(§3) Cell viability was assessed by an MTT assay, which functions based on the reduction of a MTT into formazan dye by active mitochondria. The cells were treated with 100 µL of MTT (1 mg/mL, Sigma, St. Louis, MO, USA) and incubated at 37 °C for 4 h. The reaction was blocked by DMSO and measured in a microplate reader (Bio-Tek Instruments, Winooski, VT, USA) at 492 nm. The untreated control was arbitrarily set as 100%.
(Cytopathic effects are the visible damage that an infection or toxin causes in cultured cells.)

The test system of data set [2] is EV71. In words: Effect on EV71 release from RD cells. The class given is cell-based, Enterovirus 71. To be noted: 10 µg/mL 4a, 20 µg/mL 4i, 40 µg/mL 4r or 4s after infection, supernatants and cells harvested together or separately at 12 h. As for the experimental part:
Figure 2 Analysis of modes of action against EV71 of gramine derivatives. Analysis of effective stage. The RD cells were treated with tested compounds before, simultaneously or after EV71 (100 TCID50) inoculation: antiviral effects were detected by measuring (A) cell viability and (B) progeny virus yields (10 µg/mL 4a, 20 µg/mL 4i, 40 µg/mL 4r and 4s) 48 h post infection; (C) Analysis of the effects on EV71 adsorption. Mock- or 10 µg/mL 4a, 20 µg/mL 4i, 40 µg/mL 4r and 4s-treated EV71 (10^4 TCID50) was spinoculated onto RD cells and adsorbed for 2 h; intracellular virus was subjected to titration using the TCID50 method; (D) Effects on EV71 release from RD cells. RD cells infected with 100 TCID50 of EV71 were incubated with 10 µg/mL 4a, 20 µg/mL 4i, 40 µg/mL 4r and 4s for 12 h, of both cells and supernatants (intra- and extracellular), or of cells or supernatants harvested separately for virus titration. […] Values represent the mean ± standard deviation of three independent experiments.
A possible effect of the compounds on viral release from cells was tested. The RD cells were treated with or without 10 µg/mL 4a, 20 µg/mL 4i, or 40 µg/mL 4r or 4s after EV71 infection, and the supernatants and cells were harvested together or separately for analysis of progeny virus yields at 12 h.
(§4) The virus suspension, serially diluted 10-fold with DMEM containing 2% FBS, was inoculated to cells in a 96-well plate. After 1 h incubation at 37 °C in 5% CO2, unbinding virus was washed out and MM was added to the cells. After 2 days, the infected cells were monitored for cytopathic effects (CPEs). The virus titer was calculated by the Reed–Muench method.

The subject of data set [3] is EV71. Put plainly: Direct inactivation of virions (virucidal test), TCID50 titration. The data set is classed as cell-based, Enterovirus 71. To be noted: 10^4 TCID50 EV71 incubated with 20 µg/mL 4a, 40 µg/mL 4i, 80 µg/mL 4r or 4s for 24 h at 4 °C; data not shown. As for the experimental part:
Based on structure specificity, antiviral activity, and selectivity therapeutic index, compounds 4a, 4i, 4r and 4s were chosen for further investigation on modes of action against EV71 infection. To determine whether these gramine derivatives inactivated virions directly, 10^4 TCID50 (median tissue culture infective dose) of EV71 suspension was incubated with 20 µg/mL 4a, 40 µg/mL 4i, or 80 µg/mL 4r or 4s for 24 h at 4 °C; subsequently, the virus titers in the mixture were measured by inoculating 100-fold dilution of the mixtures beyond the effective concentrations of the compounds into the host cells. The TCID50 values were calculated by the Reed-Muench method based on the CPE observed on day 2 post inoculation (pi). […] Thus, these compounds appear not to be virucidal for the viruses tested.
as §4

Data set [4] concerns Enterovirus 71 (EV71). Put plainly: Inhibition of EV71-induced cytopathogenicity (CPE) in Vero cells, MTT. The class given is cell-based. To be noted: Enterovirus A, read-out: EC50 (µg/mL) Vero. As for the experimental part:
as §1
Figure 1 Gramine and its synthetic derivatives inhibited virus-induced CPE. (A) Vero cells were infected with 100 TCID50 of EV71 mixed with serial dilutions of tested compounds for 1.5 h at 37 °C; the inoculum was aspirated and cells were incubated with DMEM/tested compounds at 37 °C, 5% CO2 for 48 h pi. The viability of the cells was determined with an MTT assay; (B) Morphology image of Vero and RD cells treated with compounds 4a, 4i, 4r, and 4s for 48 h pi. (magnification, 20×).
as §2, §3

Data set [5] in a line: Cytotoxicity on uninfected Vero cells, MTT. The data set is classed as cell-based. The following applies: African green monkey; concentration reducing cell viability by 50%; uninfected Vero cells, 48 h, MTT; read-out: CC50 (µg/mL) Vero. As for the experimental part: as §1, §2, §3
Data set [6] has as its system EV71. Put plainly: Analysis of effective stage (treatment before, during or post infection) in RD cells. To be noted: up to a concentration of 40 µg/mL. The data set is classed as cell-based, Enterovirus 71.
[7] abbreviates: concentration for 50% protection from virus-induced cytopathogenicity, RD cells, 100 TCID50 EV71, 48 h, MTT.
Setting [8] is: concentration for 50% protection from virus-induced cytopathogenicity, Vero cells, 100 TCID50 EV71, 48 h, MTT, mean ± SD of three experiments.

Values after ≈ are worked out from the molar mass of the structure shown.

Consider `c1ccc(C(Nc2ccccn2)c2c[nH]c3ccccc23)cc1` (centres unmarked) [Compound 4a], for which the EC50 came out at 5.5 ± 2.4 µg/mL (≈ 18.4 µM) with Enterovirus 71 (EV71) [1] (setting [7]) and 12.7 ± 3.2 µg/mL (≈ 42.4 µM) with Enterovirus 71 (EV71) [4] (setting [8]). For the same molecule, the “inhibition of virus-induced CPE (morphology)” value (shortened to “inhibition … (morphology)”) in the data set with Enterovirus 71 (EV71) [1] (RD cells) is reported as “nearly complete inhibition of CPE”. Besides, the “effect on release of EV71 from cells” value in the data set on EV71 [2] is reported as “no effect on the release of EV71”. The “virus titers of mixture with vs without compound (virucidal effect)” value in the data set on EV71 [3] was “No significant difference in virus titers”. The CC50 at 48 h in data set [5] stood at 32.6 ± 3.5 µg/mL (≈ 109 µM).

On to `Cn1cc(C(Nc2ccccn2)c2ccc(F)cc2)c2ccccc21` (centres unmarked) [Compound 4i], for which the values for the EC50 in the data set with Enterovirus 71 (EV71) [1] (setting [7]) and in the data set with Enterovirus 71 (EV71) [4] (setting [8]) were 6.1 ± 3.2 µg/mL (≈ 18.4 µM) and 5.5 ± 1.6 µg/mL (≈ 16.6 µM), respectively. The “inhibition … (morphology)” value in the data set with Enterovirus 71 (EV71) [1] (RD cells) is “nearly complete inhibition of CPE”. Also, the “effect on release of EV71 from cells” value in the data set with EV71 [2] is recorded as “no effect on the release of EV71”. For the same molecule, the “virus titers of mixture with vs without compound (virucidal effect)” value in the data set on EV71 [3] is “No significant difference in virus titers”. The CC50 at 48 h in data set [5] amounted to 71.1 ± 3.8 µg/mL (≈ 215 µM).

Take `Cn1cc(C(Nc2nc3ccccc3s2)c2ccccc2F)c2ccccc21` (centres unmarked) [Compound 4r]: the results for the EC50 with Enterovirus 71 (EV71) [1] (setting [7]) and with Enterovirus 71 (EV71) [4] (setting [8]) were 7.3 ± 1.3 µg/mL (≈ 18.8 µM) and 9.9 ± 1.4 µg/mL (≈ 25.5 µM), respectively. The “inhibition … (morphology)” value with Enterovirus 71 (EV71) [1] (RD cells) is given as “nearly complete inhibition of CPE”. Moreover, the “effect on release of EV71 from cells” value with EV71 [2] is on record as “no effect on the release of EV71”. The “virus titers of mixture with vs without compound (virucidal effect)” value in the data set with EV71 [3] is recorded as “No significant difference in virus titers”. Further, the morphological cytotoxicity result in the data set with EV71 [6] was “no morphological cytotoxicity was observed”. In addition, the CC50 at 48 h in data set [5] turned out to be 132 ± 8.3 µg/mL (≈ 342 µM).

In the case of `c1ccc(C(Nc2nc3ccccc3s2)c2c[nH]c3ccccc23)nc1` (centres unmarked) [Compound 4s], the EC50 with Enterovirus 71 (EV71) [1] (EV71, RD, 48 h) was 9.1 ± 3.1 µg/mL (≈ 25.5 µM); with Enterovirus 71 (EV71) [4] (EV71, Vero, 48 h), 7.6 ± 2.5 µg/mL (≈ 21.3 µM). The “inhibition … (morphology)” value with Enterovirus 71 (EV71) [1] (RD cells) is “nearly complete inhibition of CPE”. Also, the “effect on release of EV71 from cells” value in the data set with EV71 [2] is on record as “no effect on the release of EV71”. For the same molecule, the “virus titers of mixture with vs without compound (virucidal effect)” value with EV71 [3] is recorded as “No significant difference in virus titers”. For the same molecule, the morphological cytotoxicity result with EV71 [6] is listed as “no morphological cytotoxicity was observed”. In addition, the CC50 at 48 h in data set [5] was 109 ± 16.8 µg/mL (≈ 305 µM).
